Source: US20160166560A1, “Urea Compounds and Their Use as FAAH Enzyme Inhibitors” (BIAL-PORTELA & Cª, S.A., priority 2013, published 2016)
Where a name gives a salt, the structure may show the parent alone.

Tests used:
FAAH [1] = target: T1, FAAH (Mus musculus, UniProt O08914); assay: In vitro/ex vivo FAAH activity determination in liver after intra-tracheal instillation; parameters: Liver and brain fragments were removed and processed for enzymatic activity determination; from tissue; host or cells: mouse liver fragment homogenate; species or system male NMRI mice; settings: remaining enzymatic activity vs controls, 1 mg/kg intra-tracheal instillation, sacrificed after 8 h
T1 sequence (O08914 1-579): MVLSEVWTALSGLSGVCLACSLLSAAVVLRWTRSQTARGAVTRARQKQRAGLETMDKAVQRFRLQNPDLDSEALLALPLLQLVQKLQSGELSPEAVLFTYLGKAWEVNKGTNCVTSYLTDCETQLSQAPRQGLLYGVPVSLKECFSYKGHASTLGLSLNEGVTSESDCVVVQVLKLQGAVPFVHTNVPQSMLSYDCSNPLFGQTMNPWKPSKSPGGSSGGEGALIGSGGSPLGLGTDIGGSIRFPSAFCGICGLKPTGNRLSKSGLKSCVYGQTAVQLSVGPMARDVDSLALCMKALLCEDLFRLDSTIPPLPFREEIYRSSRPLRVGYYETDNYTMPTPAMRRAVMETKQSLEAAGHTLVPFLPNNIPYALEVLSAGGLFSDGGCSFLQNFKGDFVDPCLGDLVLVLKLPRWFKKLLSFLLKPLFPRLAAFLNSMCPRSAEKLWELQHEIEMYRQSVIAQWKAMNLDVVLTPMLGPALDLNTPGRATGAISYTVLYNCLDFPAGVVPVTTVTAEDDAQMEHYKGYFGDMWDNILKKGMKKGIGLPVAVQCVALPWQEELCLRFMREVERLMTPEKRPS
Description: (§1) To evaluate the selectivity of test compounds in inhibiting FAAH activity, male NMRI mice were administrated following instillation with 1 mg/kg compound and were sacrificed after 8 h treatment. Liver and brain fragments were removed and processed for enzymatic activity determination.
(§2) FAAH activity was measured as the amount of ^3H-ethanolamine formed, by liquid scintillation counting, from the hydrolysis of the substrate anandamide (AEA, labeled with ^3H on the ethanolamine part of the molecule). The percentage of remaining enzymatic activity was calculated in respect to controls and after blank subtraction. Therefore, a low value for the test compounds indicates a strong inhibitor.
(§3) Male NMRI mice (body weight range: 25-35 g) were obtained from Harlan Laboratories (Barcelona, Spain). Animals were kept 10 per cage, under controlled environmental conditions (12 hr light [8 am]/12 hr dark [8 pm]cycle; room temperature 22±1° C.). Food and tap water were allowed ad libitum. Animals were habituated to the animal facilities at least for a week prior to experiments. The experiments were all carried out during daylight hours.
(§4) Animals were fasted overnight before administration of compounds. […] After administration the animals were given atipamezole (1 mg/kg) to reverse the sedative and analgesic effects induced by the anaesthesia.
(§5) Fifteen minutes before sacrifice, animals were anesthetized with pentobarbital 60 mg/kg administrated intra-peritoneally. The brain (without cerebellum) and a fragment of liver were collected into plastic vials containing membrane buffer (3 mM MgCl2, 1 mM EDTA, 50 mM Tris HCl, pH 7.4). Glass beads (2.5 mm BioSpec Products, Bartlesville, Okla., USA) were added to the vials containing the brain and liver tissues. Tissues were stored at −20° C. until analysis.
(§6) Anandamide [ethanolamine-1-^3H-] was obtained from American Radiochemicals—with a specific activity of 60 Ci/mmol. All other reagents were obtained from Sigma-Aldrich. Optiphase Supermix was obtained from Perkin Elmer.
(§7) Brain and liver tissues were thawed and homogenized in 10 volumes of membrane buffer (3 mM MgCl2, 1 mM EDTA, 50 mM Tris HCl, pH 7.4) with homogenizer Precellys 24 Dual Tissue Homogenizer (Bertin Technologies) for 2 cycles of 5 sec (5000 rpm).
(§8) Total protein in the tissue homogenates was determined with the BioRad Protein Assay (BioRad) using a standard curve of BSA ([…]). Tissue homogenates were diluted to appropriate concentration for enzymatic determination in assay buffer (1 mM EDTA, 10 mM Tris HCl, pH 7.6).
(§9) Reaction mix (total volume 200 μL) contained 2 μM AEA (2 μM AEA+5 nM ^3H-AEA), 0.1% fatty acid free BSA, 15 μg (brain) or 5 μg (liver) protein, in assay buffer (1 mM EDTA, 10 mM Tris pH 7.6).
(§10) The test compound was used at a level of 1 mg/kg protein. After 15 minutes pre-incubation at 37° C. of the protein sample, reaction was started by the addition of the substrate solution (cold AEA+radiolabelled AEA+BSA). Reaction was carried out for 12 minutes for brain and liver tissues. Reaction was terminated by addition of 400 μL chloroform:methanol (1:1, v/v) solution. Reaction samples were vortex twice, left on ice for 5 minutes and then centrifuged in the microfuge for 7 minutes, 7000 rpm. 200 μL of the obtained supernatants were added to […] Optiphase Supermix scintillation cocktail previously distributed in 24-well plates.
(§11) Counts per minute (cpm) were determined in a Microbeta TriLux scintillation counter. In each assay blank samples (without protein) were prepared.

[2] = Solubility assay in purified water; type: physicochemical; settings: pH 5.7, thermodynamic from solid; purified water pH=5.6-5.8, stirring 2 h, room temperature, HPLC
Description: A saturated solution was prepared by adding the test compound in excess to 1 mL of purified water (pH=5.6-5.8) followed by stirring of the mixture for 2 h at room temperature. Thereupon, the un-dissolved material was removed by filtration and the amount of test compound in the filtrate was quantified by HPLC using a calibration curve.

FAAH [3] = target: T1, FAAH; assay: In vitro/ex vivo FAAH activity determination in brain after intra-tracheal instillation; parameters: Liver and brain fragments were removed and processed for enzymatic activity determination; from tissue; species or system male NMRI mice; settings: remaining enzymatic activity vs controls, 1 mg/kg intra-tracheal instillation, sacrificed after 8 h
Description: as §1, §2, §3, §4, §5, §6, §7, §8, §9, §10, §11

CYPs = CYPs metabolic stability assay in HLM (human liver microsomes); type: in vitro ADME; settings: HLM 1 mg/ml protein, compound 5 μM, 60 min, 37° C.; for Control (% remain): absence of NADPH; for CYP+ (% remain): with NADPH 1 mM
Description: Stability of the test compounds was performed in HLM (human liver microsomes) in the presence and in the absence of NADPH.
The stability was measured using the incubation mixture (100 μl total volume) contained 1 mg/ml total protein, MgCl2 5 mM and 50 mM K-phosphate buffer. Samples were incubated in the presence and in the absence of NADPH 1 mM. Reactions were pre-incubated 5 min and the reaction initiated with the compound under test (at a concentration of 5 μM). Samples were incubated for 60 min in a shaking water bath at 37° C. The reaction was stopped by adding 100 μl of acetonitrile. Samples were then centrifuged, filtered and supematant injected in HLPC-MSD. Test compounds were dissolved in DMSO and the final concentration of DMSO in the reaction was below 0.5% (v/v). At T0 acetonitrile was added before adding the compound. All experiments were performed with samples in duplicate.

SMILES | FAAH Activity - Liver itc (% C) (FAAH [1]) | solubility at 2 h [2] | FAAH Activity - Brain itc (% C) (FAAH [3]) | Control (% remain) (CYPs) | CYP+ (% remain) (CYPs) | FAAH Activity - Liver itc (% C) (FAAH [1]; hydrochloride, 1 mg/kg) | Control (% remain) (CYPs; hydrochloride) | CYP+ (% remain) (CYPs; hydrochloride) | FAAH Activity - Brain itc (% C) (FAAH [3]; hydrochloride, 1 mg/kg)
CN(C(=O)n1cnc(-c2cccc(NC(N)=O)c2)c1)C1CCN(Cc2ccccc2)CC1.O=C(O)/C=C\C(=O)O [Example 21, N-(1-benzylpiperidin-4-yl)-N-methyl-4-(3-ureidophenyl)-1H-imidazole-1-carboxamide maleate] | 8.2 % C | 4.3 mg/mL | 92.4 % C |  |  |  |  |  | 
COc1cccc(CN2CCC(N(C)C(=O)n3cnc(-c4cccc(NS(N)(=O)=O)c4)c3)CC2)c1 [Example 3, N-(1-(3-methoxybenzyl)piperidin-4-yl)-N-methyl-4-(3-(sulfamoylamino)phenyl)-1H-imidazole-1-carboxamide hydrochloride] | 5.3 % C | 7.7 mg/mL | 96.0 % C | 103.5 % remain | 17.5 % remain |  |  |  | 
CN(C(=O)n1cnc(-c2cccc(C(N)=O)c2)c1)C1CCN(c2ccc(O)cc2)CC1 [Example 35, 4-(3-carbamoylphenyl)-N-(1-(4-hydroxyphenyl)piperidin-4-yl)-N-methyl-1H-imidazole-1-carboxamide hydrochloride] | 4.3 % C | 10.2 mg/mL | 96.6 % C | 73.8 % remain | 81.0 % remain |  |  |  | 
COc1ccc(CN2CCC(N(C)C(=O)n3cnc(-c4cccc(C(N)=O)c4)c3)CC2)cc1 [Example 33, 4-(3-carbamoylphenyl)-N-(1-(4-methoxybenzyl)piperidin-4-yl)-N-methyl-1H-imidazole-1-carboxamide hydrochloride] | 3.4 % C | > 14.9 mg/mL | 102 % C | 112.2 % remain | 70.4 % remain |  |  |  | 
COc1ccc(CN2CCC(N(C)C(=O)n3cnc(-c4cccc(NC(N)=O)c4)c3)CC2)cc1OC [Example 26, N-(1-(3,4-dimethoxybenzyl)piperidin-4-yl)-N-methyl-4-(3-ureidophenyl)-1H-imidazole-1-carboxamide hydrochloride] | 12.4 % C |  | 124.3 % C | 97.7 % remain | 81.4 % remain |  |  |  | 
COc1cccc(CN2CCC(N(C)C(=O)n3cnc(-c4cccc(NS(N)(=O)=O)c4)c3)CC2)c1.CS(=O)(=O)O [Example 23, N-(1-(3-methoxybenzyl)piperidin-4-yl)-N-methyl-4-(3-(sulfamoylamino)phenyl)-1H-imidazole-1-carboxamide methanesulfonate] | 11.5 % C | > 16 mg/mL | 82.1 % C |  |  |  |  |  | 
CN(C(=O)n1cnc(-c2cccc(OS(N)(=O)=O)c2)c1)C1CCN(c2ccccc2)CC1 [Example 6, 3-(1-(methyl(1-phenylpiperidin-4-yl)carbamoyl)-1H-imidazol-4-yl)phenyl sulfamate hydrochloride] | 1.7 % C |  | 82.1 % C | 88.7 % remain | 12.0 % remain |  |  |  | 
CN(C(=O)n1cnc(-c2cccc(OS(N)(=O)=O)c2)c1)C1CCN(Cc2ccc3c(c2)OCO3)CC1 [Example 30, 3-(1-((1-(benzo[d][1,3]dioxol-5-ylmethyl)piperidin-4-yl)(methyl)carbamoyl)-1H-imidazol-4-yl)phenyl sulfamate hydrochloride] | 13.7 % C |  | 107.1 % C | 97.8 % remain | 64.8 % remain |  |  |  | 
COc1ccccc1N1CCC(N(C)C(=O)n2cnc(-c3cccc(C(N)=O)c3)c2)CC1 [Example 34, 4-(3-carbamoylphenyl)-N-(1-(2-methoxyphenyl)piperidin-4-yl)-N-methyl-1 H-imidazole-1-carboxamide hydrochloride] | 3.3 % C | > 14.7 mg/mL | 78.7 % C | 105.4 % remain | 9.1 % remain |  |  |  | 
COc1cc(CN2CCC(N(C)C(=O)n3cnc(-c4ccc(OS(N)(=O)=O)cc4)c3)CC2)cc(OC)c1 [Example 8, 4-(1-((1-(3,5-dimethoxybenzyl)piperidin-4-yl)(methyl)carbamoyl)-1H-imidazol-4-yl)phenyl sulfamate hydrochloride] |  |  |  |  |  | 5.4 % C | 93.2 % remain | 25.2 % remain | 97.6 % C
COc1cccc(CN2CCC(N(C)C(=O)n3cnc(-c4cccc(OS(N)(=O)=O)c4)c3)CC2)c1.Cl [Example 11, 3-(1-((1-(3-methoxybenzyl)piperidin-4-yl)(methyl)carbamoyl)-1H-imidazol-4-yl)phenyl sulfamate hydrochloride] | 4.4 % C |  | 84.2 % C | 100.0 % remain | 5.9 % remain |  |  |  | 
COc1cccc(CN2CCC(N(C)C(=O)n3cnc(-c4cccc(NC(N)=O)c4)c3)CC2)c1.Cl [Example 17, N-(1-(3-methoxybenzyl)piperidin-4-yl)-N-methyl-4-(3-ureidophenyl)-1 H-imidazole-1-carboxamide hydrochloride] | 4.2 % C | 14.1 mg/mL | 91.9 % C | 103.4 % remain | 21.4 % remain |  |  |  | 
